In publication PMC8121435, “Cork-in-bottle mechanism of inhibitor binding to mammalian complex I” (Science Advances, 2021):

What was measured:
Type in all cases: biochemical
[1] = biological target: T1, complex I in mitochondrial membranes (Mus musculus, UniProt P03888+Q91WD5+Q9DC70); assay: NADH oxidation in mouse mitochondrial membranes; settings: M. musculus membranes 20 μg ml−1; ± SE
T1 construct: from tissue; host or cells: mouse (C57BL/6) heart mitochondria
Protocol: (§1) All catalytic activity assays were conducted at 32°C in 96-well plates using a Molecular Devices Spectramax 384 plus plate reader. Catalysis was initiated by addition of 200 μM NADH and monitored at 340 and 380 nm (ε340–380 = 4.81 mM^−1 cm^−1). Linear rates were measured for all assays, inhibitors were added from dimethyl sulfoxide stock solutions as required, and inhibitor-insensitive rates (using either 1 μM piericidin A or 1.4 μM IACS-2858) were subtracted from each measured rate. Membrane samples were prepared as described previously ([17], [20], [59], [60]), diluted to 20 μg ml^−1 in 10 mM tris-SO4 (pH 7.5) and 250 mM sucrose, and supplemented with 3 μM horse heart cytochrome c (except for P. denitrificans, for which the activity is unaffected by the addition). Mouse, bovine, and yeast (Y. lipolytica) complex I were purified as described previously ([17], [20], [59]); diluted to 0.5 nM in 20 mM tris-HCl (pH 7.5), 0.15% asolectin, and 0.15% CHAPS; and assayed using either 200 μM dQ or 200 μM ubiquinone-1 (Sigma-Aldrich). Complex I was purified from P. denitrificans strain Pd1222 ([61]) and provided by O. D. Jarman (MRC Mitochondrial Biology Unit, University of Cambridge); it was assayed likewise but in 10 mM MES-HCl (pH 6.5), 25 mM NaCl, and 2 mM CaCl2. […]

complex I in bovine SMPs = biological target: T2, complex I in bovine SMPs (Bos taurus, UniProt P03887+P17694+P42026); assay: Forward electron transport (NADH oxidation) in bovine heart submitochondrial particles; settings: NADH oxidation rate, ± SE
T2 construct: Complex I from bovine heart were prepared; from tissue; host or cells: bovine heart mitochondria
Protocol: as §1

[2] = biological target: T3, P. denitrificans complex I (Paracoccus denitrificans, UniProt P29916+P29918+P29920); assay: NADH:decylubiquinone oxidoreduction by purified P. denitrificans complex I; settings: dQ, pH 6.5
T3 construct: Complex I was purified from P. denitrificans strain Pd1222; endogenous in cells; host or cells: P. denitrificans strain Pd1222
Protocol: as §1

[3] = biological target: T4, complex I in bacterial membranes (Paracoccus denitrificans, UniProt P29916+P29918+P29920); assay: NADH oxidation in P. denitrificans bacterial membranes; settings: P. denitrificans membranes 20 μg ml−1
T4 construct: Complex I was purified from P. denitrificans strain Pd1222; endogenous in cells; host or cells: P. denitrificans strain Pd1222
Protocol: as §1

[4] = biological target: T5, complex I in mitochondrial membranes (Yarrowia lipolytica, UniProt Q9B6E8+Q9UUT7+Q9UUU1); assay: NADH oxidation in Y. lipolytica mitochondrial membranes
T5 sequence (Q9B6E8 1-341): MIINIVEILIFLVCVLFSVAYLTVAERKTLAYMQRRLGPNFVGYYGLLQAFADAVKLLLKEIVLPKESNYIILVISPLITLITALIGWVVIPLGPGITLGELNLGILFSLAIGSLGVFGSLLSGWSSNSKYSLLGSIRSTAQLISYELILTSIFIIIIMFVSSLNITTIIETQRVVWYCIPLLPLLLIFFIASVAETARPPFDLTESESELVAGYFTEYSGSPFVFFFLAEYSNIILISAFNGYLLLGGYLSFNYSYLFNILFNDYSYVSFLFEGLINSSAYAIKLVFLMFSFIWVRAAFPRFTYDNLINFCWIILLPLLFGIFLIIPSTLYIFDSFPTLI
T5 sequence (Q9UUU1 22-466): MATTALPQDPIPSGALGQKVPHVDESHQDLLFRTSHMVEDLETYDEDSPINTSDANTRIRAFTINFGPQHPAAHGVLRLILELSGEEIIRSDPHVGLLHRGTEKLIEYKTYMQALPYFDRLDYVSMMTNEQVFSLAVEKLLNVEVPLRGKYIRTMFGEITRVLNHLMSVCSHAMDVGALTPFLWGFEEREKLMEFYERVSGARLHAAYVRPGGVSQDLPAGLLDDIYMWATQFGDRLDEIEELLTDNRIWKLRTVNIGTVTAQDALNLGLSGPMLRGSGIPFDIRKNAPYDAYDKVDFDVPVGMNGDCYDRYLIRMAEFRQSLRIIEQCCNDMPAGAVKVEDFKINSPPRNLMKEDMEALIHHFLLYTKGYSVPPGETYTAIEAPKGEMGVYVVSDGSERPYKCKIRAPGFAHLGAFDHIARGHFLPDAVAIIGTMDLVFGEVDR
T5 sequence (Q9UUT7 28-210): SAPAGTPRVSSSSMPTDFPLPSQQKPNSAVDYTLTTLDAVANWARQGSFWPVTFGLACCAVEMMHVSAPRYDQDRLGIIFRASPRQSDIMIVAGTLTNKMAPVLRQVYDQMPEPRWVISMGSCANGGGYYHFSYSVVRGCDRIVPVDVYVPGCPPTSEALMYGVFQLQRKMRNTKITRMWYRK
Protocol: as §1

[5] = biological target: T6, complex I in mitochondrial membranes (Bos taurus, UniProt P03887+P17694+P42026); assay: NADH oxidation in bovine mitochondrial membranes; settings: B. taurus membranes 20 μg ml−1; ± SE
T6 construct: Complex I from bovine heart were prepared; from tissue; host or cells: bovine heart mitochondria
Protocol: as §1

CS(=O)(=O)C1CCN(c2cccc(Cn3cc(-c4nc(-c5ccc(OC(F)(F)F)cc5)no4)ccc3=O)c2)CC1 [IACS-2858, 1-(3-(4-(Methylsulfonyl)piperidin-1-yl)benzyl)-5-(3-(4-(trifluoromethoxy)phenyl)-1,2,4-oxadiazol-5-yl)pyridin-2(1H)-one]
IC50 [1]: 0.0014 ± 0.0001 µM
IC50 (complex I in bovine SMPs): 0.0064 ± 0.0002 µM
IC50 [2]: ~110 µM
IC50 [3]: ~61 µM
IC50 [4]: ~7.2 µM
IC50 [5]: 0.0034 ± 0.0003 µM
